According to patent US20250109127A1, “METHODS OF USE OF PHENOXYPROPYLAMINE COMPOUNDS TO TREAT DEPRESSION” (Minerva Neurosciences, Inc., priority 2013, published 2025):
“And” between values parts separate entries of the source, which are not always exact repeats. Equal entries are not always repeated.

System: DOPAC release in the rat prefrontal cortex
Assay: Microdialysis: DOPAC release in prefrontal cortex after I.P. administration
Assay type: in vivo
Conditions: Citalopram 10 mg/kg I.P.
Procedure: The aim of the study was to evaluate, using microdialysis, the effects of an intraperitoneal (I.P.) administration in rats of three different doses of SON-117 on dopamine and its metabolites, serotonin and its metabolite (5-HIAA), and norepinephrine levels in prefrontal cortex.
Thirty-two adult male Wistar rats were used for the whole study (4 groups of eight animals planned for the study, Table 1).
Surgery was performed on rats weighing about 300 g at the beginning of the experiments. Rats were anaesthetized with Ketamine (50 mg/kg) & Xylazine (15 mg/kg) by intramuscular administration. The animals were placed in a stereotaxic apparatus in the flat-skull position at a constant setting of −3.3 mm between ear bars and the incisor bar. The animals were treated with a local anesthesic (xylocaine 1%, Astra Zeneca) and an analgesic (Temgesic, from Schering Plough, 0.05 mg/kg, s.c.). A rostrocaudal midline incision was made with a lancet to expose the dorsal skull surface. The “stereotaxic zero” was defined by the Bregma in accordance with Paxinos and Watson's atlas (1986). A hole was drilled in the skull with a drill and the meninges were pierced with a sterile needle to implant a CMA12 guide cannula which later received the dialysis probe.
Coordinates used for implanting guide cannula in prefrontal cortex from Bregma were anteroposterior 3.7 mm, mediolateral 0.8 mm, and dorsoventral −2 mm (top of the probe was at −5 mm). The guide cannula was fixed to the skull with two stainless steel screws (1.88 mm outside diameter) anchored. An application of dental cement was added. A plastic collar allowed each animal to be tethered to a Swivel assembly of the CMA 120 awake animal system. Following surgery, rats were kept in individual cages and allowed to recover for a minimum of 3-5 days before the experimentation. The rats were handled and put in plastic bowl for 10 min at least every day to habituate the animals to their new environment for the dialysis. An I.P. administration with saline was also performed every day.
Dialysis probes (CMA12/3 mm, membrane, 20 kD cut-off, Carnegie Medicine, Stockholm, Sweden), were carefully washed before inserting into the guide cannula. The wash was performed with the artificial cerebrospinal fluid (aCSF) medium (NaCl 147 mM, KCl 2.7 mM, CaCl2 1.2 mM, MgCl2 0.85 mM) at room temperature. The dialysis system was then equilibrated at 20° C. at a perfusion rate of 1 μl/min with a Carnegie pump (CMA100). All catheters (FEP tubing, internal volume of 1.2 μl/10 cm, and tubing adaptors) used for microdialysis were treated in the same conditions.
The probes duly prepared were inserted into the guide cannula and the CMA120 Swivel assembly secured to the animal using a plastic collar. Flow through the dialysis probe with aCSF was maintained at a rate of 1 μl/min during the whole experimentation. The first four fractions (corresponding to 2 hours) were discarded to avoid the effects of parenchymal disturbance and to ensure that an approximate steady-state level was reached. Fractions were then collected over a period of 8.5 h during which time the animals remained quiet. The dialysates were automatically collected with an autosampler (microfraction collector CMA 140, Carnegie Medicin) and stored at −80° C. until analysis. […] Perfusion was then maintained for 7 hours with aCSF. The dialysates (30 μl) were collected into 300 μl vials, transferred into dry ice and then kept frozen (−80° C.) until analysis. Frozen samples were shipped to a partner for analysis. At the end of the microdialysis study, a PBS with colored ink was perfused through the probe in order to visualize the dialyzed area.
Catecholamine assay: Concentrations of dopamine, DOPAC, HVA, 5-HIAA, 5-HT, and norepinephrin were determined for each sample by HPLC coupled with electrochemical detection.

## CN(C)CCCC1(c2ccc(F)cc2)OCc2cc(C#N)ccc21 (centres unmarked) [Citalopram, citalopram, reference compound]
T0-T30 min
  DOPAC in dialysate, MEAN: 92.52 % of respective basal
T30-T1 h
  DOPAC in dialysate, MEAN: 101.61 % of respective basal
  DOPAC in dialysate, individual animals: 108.24 % of respective basal and 101.84 % of respective basal and 110.81 % of respective basal and 140.94 % of respective basal and 90.86 % of respective basal and 86.64 % of respective basal and 74.29 % of respective basal and 104.04 % of respective basal
T1 h 30-T2 h
  DOPAC in dialysate, MEAN: 103.07 % of respective basal
  DOPAC in dialysate, individual animals: 97.22 % of respective basal and 94.96 % of respective basal and 95.81 % of respective basal and 121.29 % of respective basal and 99.84 % of respective basal and 90.48 % of respective basal and 98.93 % of respective basal and 130.18 % of respective basal
T1 h-T1 h 30
  DOPAC in dialysate, MEAN: 102.71 % of respective basal
  DOPAC in dialysate, individual animals: 108.8 % of respective basal and 86.27 % of respective basal and 95.17 % of respective basal and 138.08 % of respective basal and 88.43 % of respective basal and 88.97 % of respective basal and 77.44 % of respective basal and 143.24 % of respective basal
T2 h 30-T3 h
  DOPAC in dialysate, MEAN: 86.26 % of respective basal
  DOPAC in dialysate, individual animals: 68.83 % of respective basal and 76.04 % of respective basal and 88.98 % of respective basal and 94.72 % of respective basal and 88.97 % of respective basal and 81.12 % of respective basal and 86.11 % of respective basal and 108.52 % of respective basal
T2 h-T2 h 30
  DOPAC in dialysate, MEAN: 91.70 % of respective basal
  DOPAC in dialysate, individual animals: 100.58 % of respective basal and 87.15 % of respective basal and 91.10 % of respective basal and 94.66 % of respective basal and 82.72 % of respective basal and 76.32 % of respective basal and 84.28 % of respective basal and 120.05 % of respective basal
T3 h 30-T4 h
  DOPAC in dialysate, MEAN: 92.94 % of respective basal
  DOPAC in dialysate, individual animals: 98.62 % of respective basal and 88.8 % of respective basal and 84.72 % of respective basal and 92.54 % of respective basal and 81.68 % of respective basal and 80.31 % of respective basal and 88.84 % of respective basal and 131.20 % of respective basal
T3 h-T3 h 30
  DOPAC in dialysate, MEAN: 89.35 % of respective basal
  DOPAC in dialysate, individual animals: 108.36 % of respective basal and 74.94 % of respective basal and 89.42 % of respective basal and 83.63 % of respective basal and 84.95 % of respective basal and 77.32 % of respective basal and 85.84 % of respective basal and 113.17 % of respective basal
T4 h 30-T5 h
  DOPAC in dialysate, MEAN: 97.96 % of respective basal
  DOPAC in dialysate, individual animals: 118.57 % of respective basal and 89.81 % of respective basal and 82.60 % of respective basal and 77.02 % of respective basal and 90.64 % of respective basal and 94.78 % of respective basal and 95.64 % of respective basal and 137.22 % of respective basal
T4 h-T4 h 30
  DOPAC in dialysate, MEAN: 94.89 % of respective basal
  DOPAC in dialysate, individual animals: 107.03 % of respective basal and 83.51 % of respective basal and 92.76 % of respective basal and 82.75 % of respective basal and 83.92 % of respective basal and 79.63 % of respective basal and 104.47 % of respective basal and 127.87 % of respective basal
T5 h 30-T6 h
  DOPAC in dialysate, MEAN: 101.76 % of respective basal
  DOPAC in dialysate, individual animals: 132.77 % of respective basal and 85.32 % of respective basal and 85.38 % of respective basal and 97.98 % of respective basal and 88.27 % of respective basal and 108.01 % of respective basal and 92.66 % of respective basal and 127.03 % of respective basal
T5 h-T5 h 30
  DOPAC in dialysate, MEAN: 93.03 % of respective basal
  DOPAC in dialysate, individual animals: 75.53 % of respective basal and 93.40 % of respective basal and 85.99 % of respective basal and 86.97 % of respective basal and 95.22 % of respective basal and 104.27 % of respective basal and 122.75 % of respective basal
T6 h 30-T7 h
  DOPAC in dialysate, MEAN: 100.53 % of respective basal
  DOPAC in dialysate, individual animals: 119.00 % of respective basal and 87.46 % of respective basal and 83.16 % of respective basal and 92.30 % of respective basal and 79.40 % of respective basal
T6 h-T6 h 30
  DOPAC in dialysate, MEAN: 96.87 % of respective basal
  DOPAC in dialysate, individual animals: 117.46 % of respective basal and 79.52 % of respective basal and 81.29 % of respective basal and 39.89 % of respective basal and 77.98 % of respective basal and 106.17 % of respective basal and 94.72 % of respective basal and 131.51 % of respective basal
T-30 min-T0 (pre-dose)
  DOPAC in dialysate, MEAN: 96.20 % of respective basal
T-1 h-T-30 min (pre-dose)
  DOPAC in dialysate, MEAN: 98.03 % of respective basal
